Test system: Detoxification protein genes
Experiment: DNA chip mRNA expression in yeast, detoxification protein genes (Table 8)
Type: cell-based, Saccharomyces cerevisiae S288C
Method in brief: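 Untreated cultures served as reference for log-phase S288C yeast given a growth-inhibiting, non-lethal toxicant dose for 2 h at 25° C. in YPD. Gene expression was measured on a whole-genome DNA chip from Cy3/Cy5-labeled cDNA.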

## Cl[C@H]1[C@H](Cl)[C@@H](Cl)[C@@H](Cl)[C@H](Cl)[C@H]1Cl [(7), γ-hexachlorocyclohexane]
Yeast gene YBL064C
  The level of expressed mRNA in the presence of chemical substance/The level of expressed mRNA in the absence of chemical substance: 2.5
Yeast gene YBR008C
  The level of expressed mRNA in the presence of chemical substance/The level of expressed mRNA in the absence of chemical substance: 0.9
Yeast gene YBR145W
  The level of expressed mRNA in the presence of chemical substance/The level of expressed mRNA in the absence of chemical substance: 58.8
Yeast gene YBR244W
  The level of expressed mRNA in the presence of chemical substance/The level of expressed mRNA in the absence of chemical substance: 0.6
Yeast gene YBR293W
  The level of expressed mRNA in the presence of chemical substance/The level of expressed mRNA in the absence of chemical substance: 0.9
Yeast gene YCL035C
  The level of expressed mRNA in the presence of chemical substance/The level of expressed mRNA in the absence of chemical substance: 2.7
Yeast gene YCL069W
  The level of expressed mRNA in the presence of chemical substance/The level of expressed mRNA in the absence of chemical substance: 1.4
Yeast gene YCR083W
  The level of expressed mRNA in the presence of chemical substance/The level of expressed mRNA in the absence of chemical substance: 1.8
Yeast gene YDL100C
  The level of expressed mRNA in the presence of chemical substance/The level of expressed mRNA in the absence of chemical substance: 1.6
Yeast gene YDL168W
  The level of expressed mRNA in the presence of chemical substance/The level of expressed mRNA in the absence of chemical substance: 1.1
Yeast gene YDR256C
  The level of expressed mRNA in the presence of chemical substance/The level of expressed mRNA in the absence of chemical substance: 0.6
Yeast gene YDR453C
  The level of expressed mRNA in the presence of chemical substance/The level of expressed mRNA in the absence of chemical substance: 1.0
Yeast gene YDR513W
  The level of expressed mRNA in the presence of chemical substance/The level of expressed mRNA in the absence of chemical substance: 1.6
Yeast gene YDR538W
  The level of expressed mRNA in the presence of chemical substance/The level of expressed mRNA in the absence of chemical substance: 1.2
Yeast gene YEL027W
  The level of expressed mRNA in the presence of chemical substance/The level of expressed mRNA in the absence of chemical substance: 0.8
Yeast gene YEL065W
  The level of expressed mRNA in the presence of chemical substance/The level of expressed mRNA in the absence of chemical substance: 4.3
Yeast gene YER185W
  The level of expressed mRNA in the presence of chemical substance/The level of expressed mRNA in the absence of chemical substance: 1.1
Yeast gene YFL050C
  The level of expressed mRNA in the presence of chemical substance/The level of expressed mRNA in the absence of chemical substance: 0.8
Yeast gene YGL013C
  The level of expressed mRNA in the presence of chemical substance/The level of expressed mRNA in the absence of chemical substance: 0.9
Yeast gene YGL254W
  The level of expressed mRNA in the presence of chemical substance/The level of expressed mRNA in the absence of chemical substance: 1.3
Yeast gene YGR088W
  The level of expressed mRNA in the presence of chemical substance/The level of expressed mRNA in the absence of chemical substance: 0.8
Yeast gene YGR138C
  The level of expressed mRNA in the presence of chemical substance/The level of expressed mRNA in the absence of chemical substance: 0.7
Yeast gene YGR197C
  The level of expressed mRNA in the presence of chemical substance/The level of expressed mRNA in the absence of chemical substance: 1.3
Yeast gene YGR209C
  The level of expressed mRNA in the presence of chemical substance/The level of expressed mRNA in the absence of chemical substance: 1.7
Yeast gene YGR224W
  The level of expressed mRNA in the presence of chemical substance/The level of expressed mRNA in the absence of chemical substance: 0.4
Yeast gene YHL040C
  The level of expressed mRNA in the presence of chemical substance/The level of expressed mRNA in the absence of chemical substance: 4.0
Yeast gene YHL047C
  The level of expressed mRNA in the presence of chemical substance/The level of expressed mRNA in the absence of chemical substance: 16.8
Yeast gene YHR008C
  The level of expressed mRNA in the presence of chemical substance/The level of expressed mRNA in the absence of chemical substance: 0.7
Yeast gene YHR048W
  The level of expressed mRNA in the presence of chemical substance/The level of expressed mRNA in the absence of chemical substance: 0.8
Yeast gene YHR053C
  The level of expressed mRNA in the presence of chemical substance/The level of expressed mRNA in the absence of chemical substance: 1.2
Yeast gene YHR055C
  The level of expressed mRNA in the presence of chemical substance/The level of expressed mRNA in the absence of chemical substance: 1.1
Yeast gene YIR002C
  The level of expressed mRNA in the presence of chemical substance/The level of expressed mRNA in the absence of chemical substance: 1.3
Yeast gene YIR038C
  The level of expressed mRNA in the presence of chemical substance/The level of expressed mRNA in the absence of chemical substance: 2.0
Yeast gene YJL101C
  The level of expressed mRNA in the presence of chemical substance/The level of expressed mRNA in the absence of chemical substance: 1.0
Yeast gene YJR104C
  The level of expressed mRNA in the presence of chemical substance/The level of expressed mRNA in the absence of chemical substance: 1.1
Yeast gene YKL026C
  The level of expressed mRNA in the presence of chemical substance/The level of expressed mRNA in the absence of chemical substance: 2.5
Yeast gene YKL064W
  The level of expressed mRNA in the presence of chemical substance/The level of expressed mRNA in the absence of chemical substance: 1.1
Yeast gene YKR066C
  The level of expressed mRNA in the presence of chemical substance/The level of expressed mRNA in the absence of chemical substance: 0.5
Yeast gene YKR105C
  The level of expressed mRNA in the presence of chemical substance/The level of expressed mRNA in the absence of chemical substance: 1.0
Yeast gene YKR106W
  The level of expressed mRNA in the presence of chemical substance/The level of expressed mRNA in the absence of chemical substance: 0.9
Yeast gene YLL028W
  The level of expressed mRNA in the presence of chemical substance/The level of expressed mRNA in the absence of chemical substance: 1.0
Yeast gene YLL057C
  The level of expressed mRNA in the presence of chemical substance/The level of expressed mRNA in the absence of chemical substance: 1.6
Yeast gene YLL060C
  The level of expressed mRNA in the presence of chemical substance/The level of expressed mRNA in the absence of chemical substance: 2.0
Yeast gene YLR043C
  The level of expressed mRNA in the presence of chemical substance/The level of expressed mRNA in the absence of chemical substance: 2.6
Yeast gene YLR046C
  The level of expressed mRNA in the presence of chemical substance/The level of expressed mRNA in the absence of chemical substance: 1.5
Yeast gene YML028W
  The level of expressed mRNA in the presence of chemical substance/The level of expressed mRNA in the absence of chemical substance: 0.8
Yeast gene YML116W
  The level of expressed mRNA in the presence of chemical substance/The level of expressed mRNA in the absence of chemical substance: 1.4
Yeast gene YMR015C
  The level of expressed mRNA in the presence of chemical substance/The level of expressed mRNA in the absence of chemical substance: 0.4
Yeast gene YMR038C
  The level of expressed mRNA in the presence of chemical substance/The level of expressed mRNA in the absence of chemical substance: 1.1
Yeast gene YNL239W
  The level of expressed mRNA in the presence of chemical substance/The level of expressed mRNA in the absence of chemical substance: 2.1
Yeast gene YNL241C
  The level of expressed mRNA in the presence of chemical substance/The level of expressed mRNA in the absence of chemical substance: 3.2
Yeast gene YNL259C
  The level of expressed mRNA in the presence of chemical substance/The level of expressed mRNA in the absence of chemical substance: 3.8
Yeast gene YOL158C
  The level of expressed mRNA in the presence of chemical substance/The level of expressed mRNA in the absence of chemical substance: 1.6
Yeast gene YOR031W
  The level of expressed mRNA in the presence of chemical substance/The level of expressed mRNA in the absence of chemical substance: 1.3
Yeast gene YOR153W
  The level of expressed mRNA in the presence of chemical substance/The level of expressed mRNA in the absence of chemical substance: 2.6
Yeast gene YOR247W
  The level of expressed mRNA in the presence of chemical substance/The level of expressed mRNA in the absence of chemical substance: 0.5

— patent US8192962B2, “Processes for detecting toxic substances” (Daikin Industries, Ltd., priority 2001, dated 2012)
